Assay results: patent publication US7427599B2, “Biologically active peptide comprising Tyrosyl-seryl-valine(YSV)” (CMS Peptides Patent Holding Company Limited, priority 2003, dated 2008)
Marks after values point to notes of the source that are not given here.

How the values were obtained:
[1] = test system: melanoma B16; assay: Growth of C57BL/6 mice-transplanted melanoma B16; assay type: in vivo; settings: 20 mg/kg/day intraperitoneal, 20 consecutive days
Method: B16 cells were maintained in RPMI-1640 medium with 10% FBS at 37° C., 5% CO2. Mouse B16 melanoma culture at log phase was adjusted to 2.5×10^6/ml with Hank's solution. 0.2 ml of this was subcutaneously injected to the right axilla of healthy C57 BL/6 mice to form the melanoma mice model. […] From the next day after the tumor implantation, the general conditions of the mice and the growth of the tumor were observed daily. On the next day after the last test substance administration, the tumors were extirpated and the weights of tumor were measured. […] The results were presented as arithmetic mean ±SD. Statistical analysis was performed using the ANOVA test of the SPSS software.

[2] = test system: A549 human pulmonary carcinoma; assay: A549 human pulmonary carcinoma xenograft in nude mice; assay type: in vivo, BALB/c (nu/nu) athymic nude mice; settings: 20 mg/kg/day i.p., 40 days
Method: Healthy BALB/c (nu/nu) athymic nude mice (SPF, 4-5 weeks old, weighting 18-22 g) were purchased from Shanghai Tumor Academe of China Medical Academy of Science. In the first experiment, female was used. In the second experiment, male was used.
Select A549 human pulmonary carcinoma xenografts of diameter longer than 1 cm with good growth on nude mice. Aseptically excise the tumor mass, cut into pieces of 2-4 mm^3 and submerged in RPMI1640. Pulmonary carcinoma nude mice model was prepared by transplanting the tumor mass hypodermally to the back of healthy nude mice near to the neck via an incision at the ventral thorax.
The nude mice bearing A549 xenografts were randomly divided into groups of: saline control (0.2 ml/day), YSV groups of different dosages, and Cy control (0.2 mg/kg/day). The test substances were dissolved in 0.2 ml saline and administered intraperitoneally to the mice starting from the day after the transplantation, once per day for 40 consecutive days.
The general condition of the mice was observed daily. The mice were weighed every 3-4 days and the volume of the tumor was measured:
V=(⅙)πXYZ, where X, Y, and Z were the diameters of the tumor on the 3 planes.
The day after the last injection, the tumors were excised, weighted, and the volume measured. The tumors were examined for signs of necrosis. Tumor inhibition index=(average tumor weight of saline group−average tumor weight of test group)/average tumor weight of saline group×100%)
Statistical analysis was performed with SPSS software using one-way ANOVA analysis.

Q: Which results are given for `O=P1(N(CCCl)CCCl)NCCCO1` (centres unmarked) [Cyclophosphamide, reference compound]?
A: The Inhibition rate (%) [1]: 81.5%; Tumor weight ([1]; saline 2.64 ± 0.68): 0.49 ± 0.68 g; Tumor inhibition index (%) ([2]; experiment 1, female nude mice): 39.8%; Tumor volume (cm^3) ([2]; experiment 1, female nude mice, saline 1.87 ± 1.10): 1.02 ± 0.47* cm^3; Tumor weight ([2]; experiment 1, female nude mice, saline 2.49 ± 1.02): 1.50 ± 0.75 g; Tumor inhibition index (%) ([2]; experiment 2, male nude mice): 51.9%; Tumor volume (cm^3) ([2]; experiment 2, male nude mice, saline 1.34 ± 0.69): 0.49 ± 0.34* cm^3; Tumor weight ([2]; experiment 2, male nude mice, saline 1.51 ± 0.79): 0.73 ± 0.42 g
